# Experimental data: patent US20180099931A1 (AbbVie S.à.r.l., priority 2016, published 2018)
# Like-named read-outs stand apart in the source and are kept apart here.
# Biological target: T1, F508delCFTR (Homo sapiens, UniProt P13569, DEL508-508)
# T1 construct: expressed in transfected cells; host or cells: CFBE41o- human lung-derived epithelial cells (CFBE4lo-F508delCFTR-HRP), doxycycline-inducible
# Assay: Cell Surface Expression-Horse Radish Peroxidase (CSE-HRP) Assay;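 as to Maximum % activity (with co-corrector): co-corrector and positive control are both the same reference corrector at 2 µM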;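 as to Maximum % activity (without co-corrector): percent of the 2 µM on-plate positive control corrector response above DMSO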
# Assay type: cell-based
# Conditions: for Emax / Maximum % activity (with co-corrector): maximum at any tested concentration, normalized to on-plate positive control; for Emax: read-out: Maximum % activity (without co-corrector)
# [1] = test compound without co-corrector
# [2] = test compound without co-corrector, read-out: EC50 (without co-corrector)
# [3] = with co-corrector (2 μM of 3-[(2R,4R)-4-({[1-(2,2-difluoro-1,3-benzodioxol-5-yl)cyclopropyl]carbonyl}amino)-7-methoxy-3,4-dihydro-2H-chromen-2-yl]benzoic acid)
# [4] = with co-corrector (2 μM of 3-[(2R,4R)-4-({[1-(2,2-difluoro-1,3-benzodioxol-5-yl)cyclopropyl]carbonyl}amino)-7-methoxy-3,4-dihydro-2H-chromen-2-yl]benzoic acid), read-out: EC50 (with co-corrector)
# [5] = CSE-HRP, test compound without co-corrector, read-out: EC50 (without co-corrector)
# [6] = CSE-HRP, with co-corrector (2 μM of 3-[(2R,4R)-4-({[1-(2,2-difluoro-1,3-benzodioxol-5-yl)cyclopropyl]carbonyl}amino)-7-methoxy-3,4-dihydro-2H-chromen-2-yl]benzoic acid), read-out: EC50 (with co-corrector)
# [7] = CSE-HRP, with co-corrector (2 μM)
# T1 sequence (P13569 with tags, fused parts or gaps DEL508-508): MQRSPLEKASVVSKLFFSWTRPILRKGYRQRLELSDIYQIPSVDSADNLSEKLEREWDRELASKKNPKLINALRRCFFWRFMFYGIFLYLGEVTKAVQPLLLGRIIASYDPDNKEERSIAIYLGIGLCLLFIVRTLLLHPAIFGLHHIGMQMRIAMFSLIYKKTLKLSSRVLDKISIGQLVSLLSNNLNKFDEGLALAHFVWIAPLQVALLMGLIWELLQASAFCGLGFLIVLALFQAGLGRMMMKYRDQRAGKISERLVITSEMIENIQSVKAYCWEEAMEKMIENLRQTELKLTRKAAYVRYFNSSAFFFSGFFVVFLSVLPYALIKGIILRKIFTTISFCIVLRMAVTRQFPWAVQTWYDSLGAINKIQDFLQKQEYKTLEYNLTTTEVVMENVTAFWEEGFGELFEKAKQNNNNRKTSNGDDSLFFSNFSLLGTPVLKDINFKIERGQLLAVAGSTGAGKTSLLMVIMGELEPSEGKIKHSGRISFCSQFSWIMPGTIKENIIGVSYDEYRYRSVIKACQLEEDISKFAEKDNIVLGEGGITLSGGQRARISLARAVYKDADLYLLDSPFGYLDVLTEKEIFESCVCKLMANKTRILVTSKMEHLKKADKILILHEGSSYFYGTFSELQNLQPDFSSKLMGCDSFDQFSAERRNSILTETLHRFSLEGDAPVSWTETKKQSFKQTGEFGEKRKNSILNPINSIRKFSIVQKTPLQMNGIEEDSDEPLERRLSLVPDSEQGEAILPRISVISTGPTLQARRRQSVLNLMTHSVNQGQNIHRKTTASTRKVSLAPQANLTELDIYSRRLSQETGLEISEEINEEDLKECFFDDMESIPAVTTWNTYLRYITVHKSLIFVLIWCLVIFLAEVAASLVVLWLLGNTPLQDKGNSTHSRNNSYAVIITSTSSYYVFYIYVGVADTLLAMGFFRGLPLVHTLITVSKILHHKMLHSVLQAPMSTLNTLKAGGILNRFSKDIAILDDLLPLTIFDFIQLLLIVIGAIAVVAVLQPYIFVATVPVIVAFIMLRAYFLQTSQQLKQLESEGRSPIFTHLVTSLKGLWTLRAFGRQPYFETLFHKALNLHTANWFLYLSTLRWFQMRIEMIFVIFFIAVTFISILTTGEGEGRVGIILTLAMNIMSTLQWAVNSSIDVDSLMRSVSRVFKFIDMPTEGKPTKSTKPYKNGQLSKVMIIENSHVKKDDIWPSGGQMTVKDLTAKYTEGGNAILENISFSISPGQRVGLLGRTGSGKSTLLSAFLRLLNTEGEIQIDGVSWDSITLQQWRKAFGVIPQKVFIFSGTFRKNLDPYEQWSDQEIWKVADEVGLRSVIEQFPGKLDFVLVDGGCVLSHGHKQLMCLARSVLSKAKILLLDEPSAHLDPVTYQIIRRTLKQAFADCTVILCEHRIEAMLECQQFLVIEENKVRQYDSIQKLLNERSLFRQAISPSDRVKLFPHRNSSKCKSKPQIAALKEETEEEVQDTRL
Emax [1] [%],EC50 [2] [µM],Maximum % activity (with co-corrector) [3],EC50 [4] [µM],EC50 [5] [µM],EC50 [6] [µM],Maximum % activity (with co-corrector) [7],"Emax (CSE-HRP, without co-corrector) [%]",Maximum % activity (with co-corrector) (with co-corrector (2 μM)),Emax (without co-corrector) [%],SMILES
< 100,> 10,++ (≥150 and <350),1 to 10,,,,,,,COc1cccc(CN[C@@H]2[C@@H](C(C)(C)C)[C@H](C(=O)O)N(C(=O)C3CCCCC3)[C@@H]2c2ccccc2)c1 (racemic) [III-14]
,,,,< 1,< 1,+++ (≥350),100 to 200,,,CC(C)(C)[C@H]1[C@H](Nc2cc(C(F)(F)F)cc(C(F)(F)F)c2)[C@H](c2ccccc2)N(C(=O)C2CCCCC2)[C@@H]1C(=O)O [II-148]
< 100,1 to 10,,1 to 10,,,,,++ (≥150 and <350),,COc1ccc2c(C)cc(N[C@H]3[C@H](C(C)(C)C)[C@@H](C(=O)O)N(C(=O)C4CCCCC4)[C@H]3c3ccccc3)nc2c1 [III-151]
,1 to 10,,1 to 10,,,,,+++ (≥350),< 100,"COc1cc(C(F)(F)F)cc(N[C@@H]2[C@@H](C(C)(C)C)[C@H](C(=O)O)N(C(=O)C3CCCCC3)[C@@H]2c2ccccc2)n1 (racemic) [Example 2, rac-(2R,3R,4R,5R)-3-tert-butyl-1-(cyclohexanecarbonyl)-4-{[6-methoxy-4-(trifluoromethyl)pyridin-2-yl]amino}-5-phenylpyrrolidine-2-carboxylic acid]"
> 200,1 to 10,+++ (≥350),1 to 10,,,,,,,COc1ccc(C23CC(C2)C3)cc1CN[C@H]1[C@H](C(C)(C)C)[C@@H](C(=O)O)N(C(=O)[C@@H]2CCC[C@@H](OC)C2)[C@H]1c1ccccc1 [II-479]
,,,,< 1,< 1,+++ (≥350),100 to 200,,,COc1ccc(C(C)(C)C)cc1CN[C@H]1[C@H](C(C)(C)C)[C@@H](C(=O)O)N(C(=O)c2cc(-c3ccccc3)nn2C)[C@H]1c1ccccc1 [II-226]
,,,,> 10,< 1,+ (<150),< 100,,,CC(C)c1ccccc1[C@H]1[C@@H](NCc2cc(C(C)(C)C)ccc2O)[C@H](C(C)(C)C)[C@@H](C(=O)O)N1C(=O)[C@@H]1CCCO1 [Example I-285]
< 100,> 10,+ (<150),> 10,,,,,,,CC(C)(C)[C@@H]1[C@@H](NCc2cc(S(C)(=O)=O)ccc2O)[C@@H](c2ccccc2)N(C(=O)C2CCCCC2)[C@H]1C(=O)O (racemic) [III-79]
< 100,1 to 10,++ (≥150 and <350),1 to 10,,,,,,,COc1nc(C(C)(C)C)ccc1CN[C@H]1[C@H](C(C)(C)C)[C@@H](C(=O)O)N(C(=O)[C@H]2CCCCO2)[C@H]1c1cccnc1N(C)C [II-521]
,1 to 10,,1 to 10,,,,,+++ (≥350),> 200,COc1ccc(C(C)(C)C)cc1CN[C@H]1[C@H](C(C)(C)C)[C@@H](C(=O)O)N(C(=O)C2CCCCO2)[C@H]1c1ccccc1 (relative stereo) [Example I-193]
,,,,< 1,< 1,+++ (≥350),100 to 200,,,COc1ncc(CC2CCCCC2)cc1CN[C@H]1[C@H](C(C)(C)OC)[C@@H](C(=O)O)N(C(=O)C2CCCCC2)[C@H]1c1ccccc1 [II-253]
,1 to 10,,< 1,,,,,+++ (≥350),> 200,"COc1nc(C(C)(C)C)ccc1CN[C@H]1[C@H](C(C)(C)C)[C@@H](C(=O)O)N(C(=O)[C@@H]2CCCCO2)[C@H]1c1ccccc1 [Example 38, (2S,3S,4S,5S)-3-tert-butyl-4-{[(6-tert-butyl-2-methoxypyridin-3-yl)methyl]amino}-1-[(2S)-oxane-2-carbonyl]-5-phenylpyrrolidine-2-carboxylic acid]"
100 to 200,1 to 10,+++ (≥350),< 1,,,,,,,COc1ccc(C(F)(F)F)cc1CN[C@H]1[C@H](C(C)(C)C)[C@@H](C(=O)O)N(C(=O)C2CCc3cc(C)ccc3O2)[C@H]1c1ccccc1 (some centres unmarked) [II-397]
> 200,1 to 10,+++ (≥350),1 to 10,,,,,,,COc1ccc(S(F)(F)(F)(F)F)cc1CN[C@H]1[C@H](C(C)(C)C)[C@@H](C(=O)O)N(C(=O)OC(C)C)[C@H]1c1ccccc1 [II-535]
100 to 200,1 to 10,+++ (≥350),< 1,,,,,,,COc1nc(C(C)(C)C)ccc1CN[C@H]1[C@H](C(C)(C)C)[C@@H](C(=O)O)N(C(=O)OC(C)C)[C@H]1c1ccccc1F [II-519]
> 200,1 to 10,+++ (≥350),< 1,,,,,,,COc1ccc(C2(C)CCC2)cc1CN[C@H]1[C@H](C(C)(C)C)[C@@H](C(=O)O)N(C(=O)[C@@H]2CCCO2)[C@H]1c1ccccc1C(C)C [II-593]
,1 to 10,,1 to 10,,,,,+++ (≥350),> 200,"COc1ccc(C(F)(F)F)cc1CN[C@H]1[C@H](C(C)(C)C)[C@@H](C(=O)O)N(C(=O)OC(C)C)[C@H]1c1cccnc1OC(C)C [Example 78, (2S,3S,4S,5S)-3-tert-butyl-4-({[2-methoxy-5-(trifluoromethyl)phenyl]methyl}amino)-1-{[(propan-2-yl)oxy]carbonyl}-5-{2-[(propan-2-yl)oxy]pyridin-3-yl}pyrrolidine-2-carboxylic acid]"
100 to 200,1 to 10,+++ (≥350),1 to 10,,,,,,,COc1ncc(C2CCC2)cc1CN[C@H]1[C@H](C(C)(C)C)[C@@H](C(=O)O)N(C(=O)C2CCc3cc(F)ccc3O2)[C@H]1c1ccccc1 (some centres unmarked) [II-476]
,1 to 10,,< 1,,,,,+++ (≥350),100 to 200,COc1nc(C(C)(C)C)ccc1CN[C@H]1[C@H](C(C)(C)C)[C@@H](C(=O)O)N(C(=O)OC(C)C)[C@H]1c1cccnc1OC [Example I-234]
,,,,1 to 10,1 to 10,+++ (≥350),< 100,,,CC(C)(C)[C@@H]1[C@@H](NCc2ccccc2C(F)(F)F)[C@@H](c2ccccc2)N(C(=O)C2CCCCC2)[C@H]1C(=O)O (racemic) [II-31]
,< 1,,< 1,,,,,+++ (≥350),> 200,COc1nc(C(C)(C)C)ccc1CN[C@H]1[C@H](C(C)(C)C)[C@@H](C(=O)O)N(C(=O)OC(C)C)[C@H]1c1ccccc1C(C)C [Example I-216]
< 100,1 to 10,++ (≥150 and <350),1 to 10,,,,,,,COc1nc2ccccc2cc1CN[C@H]1[C@H](C(C)(C)C)[C@@H](C(=O)O)N(C(=O)C2CCOCC2)[C@H]1c1cccnc1N(C)C [II-600]
,,,,1 to 10,1 to 10,+++ (≥350),> 200,,,COc1ccc(C(F)(F)F)cc1CN[C@@H]1[C@@H](C(C)(C)C)[C@H](C(=O)O)N(C(=O)[C@@H]2CCC[C@@H](OC)C2)[C@@H]1c1ccccc1 (racemic) [II-36]
